One compound from patent publication US20160228444A1, “NUCLEOSIDE ANALOGS AND USES THEREOF” (Ramot at Tel-Aviv University Ltd., priority 2015, published 2016) can be followed below.

Where two headings read alike, the source gives them in different places.

Holding throughout (test): Median-effect drug interaction, Hoechst viability, 72 h
Common to all, as to assay type: cell-based, human
Conditions in all cases: for IC50: Homo sapiens

In assay [1] the test system is MDA-231 cells. The method, then: (§1) The ratios of the drug combination were based on the ratio of their IC50 of each drug alone. Cell viability was determined by MTT assay, as described hereinabove. The drugs were added to the cells and incubated for 72 h.
(§2) Drug interaction in adherent cells was evaluated as above except that the viability was determined by Hoechst assay.

The test system of assay [2] is NCI-N87 gastric carcinoma cells. As for the experimental part: as §1, §2
Assay [3] relates to T47D cells. As for the experimental part: as §1, §2

`CCCC(CCC)C(=O)Nc1nc2c(ncn2COCCOC(=O)C(CCC)CCC)c(=O)[nH]1` [AN446, N-valproyl-9-(2-valproyloxy)ethoxymethyl-guanine]: the IC50 (commonly the concentration that gives 50% inhibition) in assay [1] (MDA-MB-231, MDA-231, in combination with Dox, read-out: com IC50) came to 17 µM; in assay [1] (MDA-MB-231, MDA-231, in combination with paclitaxel, read-out: com IC50), 14 ± 0.3 µM; in assay [1] (MDA-MB-231, MDA-231, single agent, Table 2, read-out: IC50), 38 µM; in assay [1] (MDA-MB-231, MDA-231, single agent, Table 3, read-out: IC50) it was 37.8 ± 1.1 µM; in assay [2] (NCI-N87, NCI-N87, single agent, Table 2), 20 ± 3 µM; in assay [2] (NCI-N87, NCI-N87, single agent, Table 3), 20 ± 3 µM. The IC50 was determined as 6 µM in assay [2] (NCI-N87, read-out: com IC50, NCI-N87, in combination with Dox); 9.1 ± 0.4 µM in assay [2] (NCI-N87, read-out: com IC50, NCI-N87, in combination with paclitaxel); 5.2 µM in assay [3] (read-out: com IC50, T47D, in combination with Dox); 13.6 ± 0.6 µM in assay [3] (read-out: com IC50, T47D, in combination with paclitaxel); 21.7 µM in assay [3] (single agent, Table 2); 23.6 ± 0.6 µM in assay [3] (single agent, Table 3). For the same compound, the “CI (combination index with paclitaxel)” value in assay [1] (MDA-231) is on record as 0.8; in assay [2] (NCI-N87), 0.76; in assay [3], 1.4.
